Experiments:
[1] = system: U937 leukemia cells over-expressing XIAP; test: U937-Neo versus U937-XIAP leukemia cells, Annexin V; format: cell-based; conditions: 5 or 8 μM, 20 hours
Method: After incubation, cells were washed, stained with FITC-conjugated Annexin V antibody and propidium iodide, and fluorescence measured by flow cytometry as described in Example XI.
Equal amounts of protein were subjected to SDS-PAGE (4-20% gradient gels from ISC BioExpress, Kaysville, Utah), followed by transfer to nitrocellulose membranes. […] Secondary antibodies consisted of horseradish peroxidase (HRP)-conjugated:goat anti-mouse IgG (Bio-Rad, Hercules, Calif.). Detection was performed by the enhanced chemiluminescence (ECL) method. […] Lysates were prepared from the cells, normalized for total protein content and analyzed by SDS-PAGE immunoblotting using antibodies specific for XIAP, caspase-3, and β-actin.

XIAP = XIAP (Homo sapiens, UniProt P98170); test: SMAC binding/competition assay: biotinylated SMAC 7-mer on NeutrAvidin plates, GST-XIAP detected by anti-GST; conditions: in words
Method: Peptide compounds containing unnatural amino acids in the 792 series, 792-33 and 792-35 (see FIG. 12 and 20 and Example XI), and an active compound in the TPI 1332 series, TPI 1332-69, were tested for binding activity in the SMAC binding assay as described above in Example X. For this assay, biotinylated SMAC 7-mer peptide (50 ng) was bound to 96 well plates coated with NeutrAvidin (Pierce, Rockford, Ill.) at 1 mg/ml in 100 μl per well of 50 mM HEPES pH 7.4, 100 mM NaCl 1 mM EDTA, 10% sucrose, 0.1% CHAPS, 10 mM DTT.

XIAP, sequence (P98170 whole entry): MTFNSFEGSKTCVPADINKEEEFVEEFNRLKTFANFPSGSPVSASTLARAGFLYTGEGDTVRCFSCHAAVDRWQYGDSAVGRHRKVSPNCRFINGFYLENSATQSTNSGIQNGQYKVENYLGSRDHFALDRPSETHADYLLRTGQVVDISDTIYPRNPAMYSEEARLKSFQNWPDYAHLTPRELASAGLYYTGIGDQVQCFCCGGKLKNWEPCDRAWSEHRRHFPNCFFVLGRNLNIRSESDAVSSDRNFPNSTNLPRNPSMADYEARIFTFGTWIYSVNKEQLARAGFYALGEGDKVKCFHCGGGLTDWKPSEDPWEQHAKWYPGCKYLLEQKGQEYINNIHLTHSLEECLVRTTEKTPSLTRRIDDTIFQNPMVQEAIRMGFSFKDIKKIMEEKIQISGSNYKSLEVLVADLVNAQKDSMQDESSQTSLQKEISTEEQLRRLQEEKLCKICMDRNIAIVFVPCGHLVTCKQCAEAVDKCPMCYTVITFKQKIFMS

Structure (SMILES): COc1ccc(CCN2CCC[C@@H]2CN(C(=O)Nc2ccccc2)[C@@H](CNC(=O)Nc2ccccc2)CC2CCCCC2)cc1 [TPI 1396-34]
- effect of over-expression of XIAP on apoptosis induction [1]: resistant
- competition with XIAP binding to the SMAC peptide (SMAC competition assay) (XIAP): does not compete

Reference: patent US20060258581A1, “Methods and composition for derepressions of IAP-inhibited caspase” (priority 2001, published 2006)
